Experimental findings from patent US20260115202A1, “TOPICAL COMPOSITIONS COMPRISING AN ESTETROL COMPONENT AND USE OF SAID COMPOSITIONS FOR WOUND HEALING” (NEURALIS SA, priority 2022, published 2026) are described below.

For the assay, the system named is LPS-induced delayed wound healing mice model. In words: In vivo LPS-induced delayed wound healing model: wound histology and immunohistochemistry. Particulars: versus LPS/PBO. An excerpt:
The in vivo LPS-induced delayed wound healing model was reproduced as previously described (Crompton R, Williams H, Ansell D, Campbell L, Holden K, Cruickshank S, Hardman M J. Oestrogen promotes healing in a bacterial LPS model of delayed cutaneous wound repair. Lab Invest. 2016 April, 96 (4): 439-49).
Female wild-type (C57BL/6J) 8 weeks old mice were split into six groups (6 animals per experimental group): • Double placebo control (no LPS, placebo treatment), • LPS control (LPS, placebo treatment), • LPS with topical EstroGel (estradiol gel, contains 0.06% 17β-estradiol as hemihydrate in a hydro-alcoholic gel), • LPS with topical AG24 (E4 at 0.5%), • LPS with topical AG25 (E4 at 0.22%), • LPS with topical AG26 (E4 at 0.06%).
The day prior to wounding (day −1), all the animals were weighed and anaesthetised using oxygen and isoflurane (flow rate 1.25-2 L with 2-2.5% isoflurane depending on clinical signs). Animals were shaved and dorsal areas prepped. Wound positions (2 wounds) were marked on the dorsum of each animal. Animals received a first subcutaneous injection of 2 μg K. pneumoniae-derived LPS diluted in DPBS (1 μg per wound: Sigma Aldrich, UK: L4268) at the wound site, except the double placebo group that received DPBS only. A thin layer of EstroGel, AG24, AG25, AG26 or placebo were then applied to the dorsum of each animal, measured as 60 μl total (30 μl/wound). Animals recovered in a warming cabinet and were then single housed in fresh cages containing alpha pad, RO water, food, mash and a house. On day 0 (24 hours after first anaesthesia), mice were re-anaesthetised and dorsal skin cleaned with chlorhexidine wipes. Two 6 mm dorsal excisions were created. 2 μg LPS (1 μg per wound) was subcutaneously injected at the wound site as above, except for the double placebo mice that were injected with DPBS. […]
These are expressed in the increase in uterus weight. Next, we evaluated wound closure from histological samples. […] The degree of re-epithelialisation was determined as the length of neo-epidermis divided by the distance between the wound margins, multiplied by 100.

Regarding `C[C@]12CC[C@@H]3c4ccc(O)cc4CC[C@H]3[C@@H]1[C@@H](O)[C@@H](O)[C@@H]2O` [Formulation E4, 1,3,5 (10)-estratrien-3,15alpha, 16alpha, 17beta-tetrol], where the note is “day 5, K14 immunohistochemistry”, the wound re-epithelialisation result is on record as “promotes re-epithelialization”. In addition, where the note is “day 5, immunohistochemistry”, the wound macrophage numbers result is “reduced numbers of wound macrophages” and the wound neutrophil numbers entry is given as “reduced numbers of wound neutrophils”.
